Positions of bridges follow the written chain, without caps; N, C: chain ends. Non-standard residues stand in square brackets, D forms with d. Residues, ends and D or L forms follow the SMILES beside them. 2Nal = N[C@@H](Cc1ccc2ccccc2c1)C(=O)O; R8 = C=CCCCCCC[C@@](C)(N)C(=O)O; S5 = C=CCCC[C@](C)(N)C(=O)O

Sequence of Mcl-1 (Q07820 whole entry, species assumed): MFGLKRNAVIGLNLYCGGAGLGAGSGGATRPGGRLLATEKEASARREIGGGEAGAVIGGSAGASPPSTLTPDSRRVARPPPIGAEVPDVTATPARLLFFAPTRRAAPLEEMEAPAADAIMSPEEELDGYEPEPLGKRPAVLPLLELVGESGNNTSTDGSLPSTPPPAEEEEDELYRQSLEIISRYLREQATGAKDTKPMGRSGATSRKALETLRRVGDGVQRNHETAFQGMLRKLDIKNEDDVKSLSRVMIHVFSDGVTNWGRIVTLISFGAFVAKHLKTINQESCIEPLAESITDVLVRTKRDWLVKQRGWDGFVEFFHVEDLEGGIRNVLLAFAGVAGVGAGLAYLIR
Sequence of Bcl-xL (Q07817 whole entry, species assumed): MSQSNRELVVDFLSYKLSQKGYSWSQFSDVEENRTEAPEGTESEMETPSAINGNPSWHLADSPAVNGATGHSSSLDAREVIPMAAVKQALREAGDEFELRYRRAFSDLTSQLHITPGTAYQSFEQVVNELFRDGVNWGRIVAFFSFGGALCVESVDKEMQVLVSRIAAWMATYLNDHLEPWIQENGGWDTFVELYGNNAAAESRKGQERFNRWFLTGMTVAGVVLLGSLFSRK

One assay deals with Bcl-xL (Homo sapiens, UniProt Q07817). The experiment in a line: Ki determination for Bcl-xL (BCL-2 family binding spectrum). The note with it: read-out: Ki BCL-XL. The text has this:
(§1) To assess the binding and affinity of compounds that antagonize the interaction between a peptide and an acceptor protein, a fluorescence polarization assay (FPA) utilizing a fluoresceinated peptidomimetic macrocycle derived from a peptidomimetic precursor sequence is used, for example. The FPA technique measures the molecular orientation and mobility using polarized light and fluorescent tracer. […] A compound that antagonizes the interaction between the fluoresceinated peptidomimetic macrocycle and an acceptor protein will be detected in a competitive binding FPA experiment.
For example, putative antagonist compounds (1 nM to 1 mM) and a fluoresceinated peptidomimetic macrocycle (25 nM) are incubated with the acceptor protein (50 nM) in binding buffer (140 mM NaCl, 50 mM Tris-HCL, pH 7.4) for 30 minutes at room temperature. Antagonist binding activity is measured, for example, by fluorescence polarization on a luminescence spectrophotometer (e.g. Perkin-Elmer LS50B). Kd values may be determined by nonlinear regression analysis using, for example, Graphpad Prism software (GraphPad Software, Inc., San Diego, Calif.).
As usually defined, the Ki is the equilibrium dissociation constant of an inhibitor or competing ligand from its target. As for `CC[C@H](C)[C@H](NC(C)=O)C(=O)N[C@@H](Cc1c[nH]c2ccccc12)C(=O)N[C@H](C(=O)N[C@@H](C)C(=O)N[C@@H](CCC(N)=O)C(=O)N[C@@H](C)C(=O)N[C@@H](CC(C)C)C(=O)N[C@@H](CCCNC(=N)N)C(=O)N[C@]1(C)CCCCCCC=CCCC[C@@](C)(C(=O)N[C@@H](Cc2ccc(O)cc2)C(=O)N[C@@H](Cc2ccc(O)cc2)C(=O)N[C@@H](C)C(N)=O)NC(=O)[C@H](C)NC(=O)[C@H](Cc2ccccc2)NC(=O)[C@H](CCC(=O)O)NC(=O)[C@H](CC(=O)O)NC(=O)CNC(=O)[C@H]([C@@H](C)CC)NC1=O)[C@@H](C)CC` [compound 1643] (Ac-IWIAQALR[R8]IGDEFA[S5]YYA-NH2; staple 9-16), the inhibition constant (Ki) turned out to be 15.4 nM.

On to `CC[C@H](C)[C@H](NC(C)=O)C(=O)N[C@@H](Cc1c[nH]c2ccccc12)C(=O)N[C@H](C(=O)N[C@@H](C)C(=O)N[C@@H](C)C(=O)N[C@@H](C)C(=O)N[C@@H](CC(C)C)C(=O)N[C@@H](CCCNC(=N)N)C(=O)N[C@]1(C)CCCCCCC=CCCC[C@@](C)(C(=O)N[C@@H](Cc2ccc(O)cc2)C(=O)N[C@@H](Cc2ccc(O)cc2)C(=O)N[C@@H](C)C(N)=O)NC(=O)[C@H](CC(N)=O)NC(=O)[C@H](Cc2ccccc2)NC(=O)[C@H](C)NC(=O)[C@H](CC(=O)O)NC(=O)CNC(=O)[C@H]([C@@H](C)CC)NC1=O)[C@@H](C)CC` [compound 1653] (Ac-IWIAAALR[R8]IGDAFN[S5]YYA-NH2; staple 9-16), for which the Ki is 25.6 nM.

On to `CC[C@H](C)[C@H](NC(C)=O)C(=O)N[C@@H](Cc1c[nH]c2ccccc12)C(=O)N[C@H](C(=O)N[C@@H](C)C(=O)N[C@@H](CCC(N)=O)C(=O)N[C@@H](C)C(=O)N[C@@H](C)C(=O)N[C@@H](CCCNC(=N)N)C(=O)N[C@]1(C)CCCCCCC=CCCC[C@@](C)(C(=O)N[C@@H](Cc2ccc(O)cc2)C(=O)N[C@@H](Cc2ccc(O)cc2)C(=O)N[C@@H](C)C(N)=O)NC(=O)[C@H](CC(N)=O)NC(=O)[C@H](C)NC(=O)[C@H](C)NC(=O)[C@H](CC(=O)O)NC(=O)CNC(=O)[C@H]([C@@H](C)CC)NC1=O)[C@@H](C)CC` [compound 1664] (Ac-IWIAQAAR[R8]IGDAAN[S5]YYA-NH2; staple 9-16), for which the Ki worked out at 154 nM.

With `CC[C@H](C)[C@H](NC(C)=O)C(=O)N[C@@H](Cc1c[nH]c2ccccc12)C(=O)N[C@H](C(=O)N[C@@H](C)C(=O)N[C@@H](CCC(N)=O)C(=O)N[C@@H](C)C(=O)N[C@@H](CC(C)C)C(=O)N[C@@H](CCCNC(=N)N)C(=O)N[C@]1(C)CCCCCCC=CCCC[C@@](C)(C(=O)N[C@@H](Cc2ccc(O)cc2)C(=O)N[C@@H](Cc2ccc(O)cc2)C(=O)N[C@@H](C)C(N)=O)NC(=O)[C@H](CC(N)=O)NC(=O)[C@H](Cc2ccccc2)NC(=O)[C@H](C)NC(=O)[C@H](CC(=O)O)NC(=O)[C@H](C)NC(=O)[C@H]([C@@H](C)CC)NC1=O)[C@@H](C)CC` [compound 1665] (Ac-IWIAQALR[R8]IADAFN[S5]YYA-NH2; staple 9-16), the inhibitory constant (Ki) came to 7.7 nM.

The next assay has as its target Mcl-1 (Homo sapiens, UniProt Q07820). The experiment in a line: Ki determination for Mcl-1 (BCL-2 family binding spectrum). To be noted: read-out: Ki MCL-1.
Text: as §1
Antagonist binding activity is measured, for example, by fluorescence polarization on a luminescence spectrophotometer (e.g. Perkin-Elmer LS50B). Kd values may be determined by nonlinear regression analysis using, for example, Graphpad Prism software (GraphPad Software, Inc., San Diego, Calif.).
Take `CC[C@H](C)[C@H](NC(C)=O)C(=O)N[C@@H](Cc1c[nH]c2ccccc12)C(=O)N[C@H](C(=O)N[C@@H](C)C(=O)N[C@@H](C)C(=O)N[C@@H](C)C(=O)N[C@@H](CC(C)C)C(=O)N[C@@H](CCCNC(=N)N)C(=O)N[C@]1(C)CCCCCCC=CCCC[C@@](C)(C(=O)N[C@@H](Cc2ccc(O)cc2)C(=O)N[C@@H](Cc2ccc(O)cc2)C(=O)N[C@@H](C)C(N)=O)NC(=O)[C@H](CO)NC(=O)[C@H](Cc2ccccc2)NC(=O)[C@H](C)NC(=O)[C@H](CC(=O)O)NC(=O)CNC(=O)[C@H]([C@@H](C)CC)NC1=O)[C@@H](C)CC` [compound 1751] (Ac-IWIAAALR[R8]IGDAFS[S5]YYA-NH2; staple 9-16): the Ki amounted to 8 nM.

Consider `CC[C@H](C)[C@H](NC(C)=O)C(=O)N[C@@H](Cc1c[nH]c2ccccc12)C(=O)N[C@H](C(=O)N[C@@H](C)C(=O)N[C@@H](CCC(N)=O)C(=O)N[C@@H](C)C(=O)N[C@@H](CC(C)C)C(=O)N[C@@H](CCCNC(=N)N)C(=O)N[C@]1(C)CCCCCCC=CCCC[C@@](C)(C(=O)N[C@@H](Cc2ccc(O)cc2)C(=O)N[C@@H](Cc2ccc3ccccc3c2)C(=O)N[C@@H](C)C(N)=O)NC(=O)[C@H](CC(N)=O)NC(=O)[C@H](Cc2ccccc2)NC(=O)[C@H](C)NC(=O)[C@H](CC(=O)O)NC(=O)CNC(=O)[C@H]([C@@H](C)CC)NC1=O)[C@@H](C)CC` [compound 1759] (Ac-IWIAQALR[R8]IGDAFN[S5]Y[2Nal]A-NH2; staple 9-16), for which the inhibitory constant (Ki) is 8 nM.

Take `CC[C@H](C)[C@H](NC(C)=O)C(=O)N[C@@H](Cc1c[nH]c2ccccc12)C(=O)N[C@H](C(=O)N[C@@H](C)C(=O)N[C@@H](C)C(=O)N[C@@H](C)C(=O)N[C@@H](CC(C)C)C(=O)N[C@@H](CCCNC(=N)N)C(=O)N[C@]1(C)CCCCCCC=CCCC[C@@](C)(C(=O)N[C@@H](Cc2ccc(O)cc2)C(=O)N[C@@H](Cc2ccc(O)cc2)C(=O)N[C@@H](CC(=O)O)C(N)=O)NC(=O)[C@H](CC(N)=O)NC(=O)[C@H](Cc2ccccc2)NC(=O)[C@H](C)NC(=O)[C@H](CC(=O)O)NC(=O)CNC(=O)[C@H]([C@@H](C)CC)NC1=O)[C@@H](C)CC` [compound 1760] (Ac-IWIAAALR[R8]IGDAFN[S5]YYD-NH2; staple 9-16): the inhibition constant Ki is 2.2 nM.

Turning to `CC[C@H](C)[C@H](NC(C)=O)C(=O)N[C@@H](Cc1c[nH]c2ccccc12)C(=O)N[C@H](C(=O)N[C@@H](C)C(=O)N[C@@H](C)C(=O)N[C@@H](C)C(=O)N[C@@H](CC(C)C)C(=O)N[C@@H](CCCNC(=N)N)C(=O)N[C@]1(C)CCCCCCC=CCCC[C@@](C)(C(=O)N[C@@H](Cc2ccc(O)cc2)C(=O)N[C@@H](Cc2ccc(O)cc2)C(=O)N[C@@H](CCC(=O)O)C(N)=O)NC(=O)[C@H](CC(N)=O)NC(=O)[C@H](Cc2ccccc2)NC(=O)[C@H](C)NC(=O)[C@H](CC(=O)O)NC(=O)CNC(=O)[C@H]([C@@H](C)CC)NC1=O)[C@@H](C)CC` [compound 1761] (Ac-IWIAAALR[R8]IGDAFN[S5]YYE-NH2; staple 9-16), the Ki was determined as 1.4 nM.

As for `CC[C@H](C)[C@H](NC(C)=O)C(=O)N[C@@H](Cc1c[nH]c2ccccc12)C(=O)N[C@H](C(=O)N[C@@H](C)C(=O)N[C@@H](C)C(=O)N[C@@H](C)C(=O)N[C@@H](CC(C)C)C(=O)N[C@@H](CCCNC(=N)N)C(=O)N[C@]1(C)CCCCCCC=CCCC[C@@](C)(C(=O)N[C@@H](Cc2ccc(O)cc2)C(=O)N[C@@H](Cc2ccc(O)cc2)C(=O)N[C@@H](CCC(N)=O)C(N)=O)NC(=O)[C@H](CC(N)=O)NC(=O)[C@H](Cc2ccccc2)NC(=O)[C@H](C)NC(=O)[C@H](CC(=O)O)NC(=O)CNC(=O)[C@H]([C@@H](C)CC)NC1=O)[C@@H](C)CC` [compound 1762] (Ac-IWIAAALR[R8]IGDAFN[S5]YYQ-NH2; staple 9-16), the Ki is 4.6 nM.

`CC[C@H](C)[C@H](NC(C)=O)C(=O)N[C@@H](Cc1c[nH]c2ccccc12)C(=O)N[C@H](C(=O)N[C@@H](C)C(=O)N[C@@H](C)C(=O)N[C@@H](C)C(=O)N[C@@H](CC(C)C)C(=O)N[C@@H](CCCNC(=N)N)C(=O)N[C@]1(C)CCCCCCC=CCCC[C@@](C)(C(=O)N[C@@H](Cc2ccc(O)cc2)C(=O)N[C@@H](Cc2ccc(O)cc2)C(=O)N[C@@H](Cc2c[nH]cn2)C(N)=O)NC(=O)[C@H](CC(N)=O)NC(=O)[C@H](Cc2ccccc2)NC(=O)[C@H](C)NC(=O)[C@H](CC(=O)O)NC(=O)CNC(=O)[C@H]([C@@H](C)CC)NC1=O)[C@@H](C)CC` [compound 1764] (Ac-IWIAAALR[R8]IGDAFN[S5]YYH-NH2; staple 9-16): the Ki stood at 10.6 nM.

With `CC[C@H](C)[C@H](NC(C)=O)C(=O)N[C@@H](Cc1c[nH]c2ccccc12)C(=O)N[C@H](C(=O)N[C@@H](C)C(=O)N[C@@H](C)C(=O)N[C@@H](C)C(=O)N[C@@H](CC(C)C)C(=O)N[C@@H](CCCNC(=N)N)C(=O)N[C@]1(C)CCCCCCC=CCCC[C@@](C)(C(=O)N[C@@H](Cc2ccc(O)cc2)C(=O)N[C@@H](Cc2ccc(O)cc2)C(=O)N[C@@H](CCCCN)C(N)=O)NC(=O)[C@H](CC(N)=O)NC(=O)[C@H](Cc2ccccc2)NC(=O)[C@H](C)NC(=O)[C@H](CC(=O)O)NC(=O)CNC(=O)[C@H]([C@@H](C)CC)NC1=O)[C@@H](C)CC` [compound 1766] (Ac-IWIAAALR[R8]IGDAFN[S5]YYK-NH2; staple 9-16), the Ki is 6.6 nM.

Regarding `CC[C@H](C)[C@H](NC(C)=O)C(=O)N[C@@H](Cc1c[nH]c2ccccc12)C(=O)N[C@H](C(=O)N[C@@H](C)C(=O)N[C@@H](CCC(N)=O)C(=O)N[C@@H](C)C(=O)N[C@@H](CC(C)C)C(=O)N[C@@H](CCCNC(=N)N)C(=O)N[C@]1(C)CCCCCCC=CCCCC2(CCCC=CCCC[C@](C)(C(=O)N[C@@H](C)C(N)=O)NC(=O)[C@H](C)NC(=O)[C@H](Cc3ccc(O)cc3)NC(=O)[C@H](Cc3ccc(O)cc3)NC2=O)NC(=O)[C@H](CC(N)=O)NC(=O)[C@H](Cc2ccccc2)NC(=O)[C@H](CCC(=O)O)NC(=O)[C@H](CC(=O)O)NC(=O)CNC(=O)[C@H]([C@@H](C)CC)NC1=O)[C@@H](C)CC` (stereo partly drawn) [compound 1784], the Ki worked out at 11.6 nM.

The values are drawn from patent publication US20190185518A9, “WARHEAD-CONTAINING PEPTIDOMIMETIC MACROCYCLES AS MODULATORS OF BFL-1” (AILERON Therapeutics, Inc., priority 2017, published 2019).
